In US20260265199A1, “CRYSTALLINE FORMS OF (R)-2-AMINO-5-(4-(2-(3,5-DIFLUOROPHENYL)-2-HYDROXYACETAMIDO)-2-METHYLPHENYL)-N-ISOPROPYLNICOTINAMIDE AND METHODS FOR USING THE SAME” (HIBERCELL, INC., priority 2023, published 2026):
Counter-ions that a name gives are not always drawn. Like-named read-outs stand apart in the source and are kept apart here.

Columns and labels:
Assay type in all cases: physicochemical
[1] = Slurry study of Form A of the mono-fumarate salt (XRPD of solids)
Protocol: XRPD patterns of samples were collected using with an X-ray diffractometer (Bruker D8 advance). The system was equipped with LynxEye detector. Samples were scanned from 3 to 40° 2θ, at a step size 0.02° 2θ. The tube voltage and current were 40 KV and 40 mA, respectively.
Slurry studies were conducted using 12 solvents at RT or 50° C. Solid samples were collected by filtration and analyzed by XRPD at a specific time.

[2] = Solubility of mono-fumarate Form A estimated by solvent addition, visual assessment
Text: The solubility of Form A of the mono-fumarate salt of the compound of formula (I) was estimated using solvent addition method via visual assessment of the samples.

[3] = Physical stability of Form C at ambient conditions (XRPD)
Protocol: The initial samples were then analyzed by XRPD. Thereafter, the vials were sealed and the samples were allowed to sit at ambient conditions for 9, 13, or 25 days (as designated in Table 35). The samples were then reanalyzed by XRPD.

[4] = Variable temperature study of Form B (cycling DSC, VT-XRPD)
Protocol: XRPD patterns were collected with a PANalytical X'Pert PRO MPD diffractometer using an incident beam of Cu Kα radiation produced using a long, fine-focus source and a nickel filter. The diffractometer was configured using the symmetric Bragg-Brentano geometry. Data were collected and analyzed using Data Collector software v. 5.5. Prior to the analysis, a silicon specimen (NIST SRM 640e) was analyzed to verify the observed position of the Si 111 peak is consistent with the NIST-certified position. A specimen of the sample was packed in a nickel-coated copper well. Anti-scatter slits (SS) were used to minimize the background generated by air scattering. Soller slits for the incident and diffracted beams were used to minimize broadening from axial divergence. Diffraction patterns were collected using a scanning position-sensitive detector (X'Celerator) located 240 mm from the sample. The data acquisition parameters for each pattern are disclosed, including the divergence slit (DS) and the incident-beam SS.
An Anton Paar TTK 450 stage was used to collect in-situ XRPD patterns as a function of temperature. The sample was heated with a resistance heater located directly under the sample holder, and the temperature was monitored with a platinum-100 resistance sensor located in the specimen holder. The heater was powered and controlled by an Anton Paar TCU 100 interfaced with Data Collector.
DSC was performed using a Mettler-Toledo DSC3+ differential scanning calorimeter. A tau lag adjustment was performed with indium, tin, and zinc. The temperature and enthalpy were adjusted with octane, phenyl salicylate, indium, tin, and zinc. The adjustment was then verified with octane, phenyl salicylate, indium, tin, and zinc. The sample was placed into a hermetically sealed aluminum DSC pan, and the weight was accurately recorded. The pan was then inserted into the DSC cell. A weighed aluminum pan configured as the sample pan was placed on the reference side of the cell. The pan lid was pierced prior to sample analysis. Samples were analyzed from −30° C. to 250° C. @ 10°/min. The cyclic DSC method heated from −30° C. to 100° C., returned to −30° C., then heated to 250° C. at 10°/min.
The thermal events associated with heating Form B, prepared according to Example 30, were further investigated by cycling DSC and variable temperature XRPD (FIG. 33 and FIG. 34, respectively). […] This phase transition was confirmed by VT-XRPD (see the diffraction pattern obtained at 100° C. in FIG. 34). During the first DSC cooling cycle, an exotherm at approximately 35° C. was observed. […] During the final DSC heating cycle, Form B first undergoes a phase transition to Material F at approximately 67° C. (endotherm). […] (endotherm) and immediately recrystallize as Form A (exotherm onset at approximately 164° C.). […] Determining which solid form was obtained after recrystallization was confirmed by VT-XRPD (the pattern obtained at approximately 175° C., FIG. 34).
It is believed that this solid state behavior can be explained due to the relative stability of Form B and Material F is reversed in passing the transition temperature. For enantiotropic systems where hysteresis is minimal within the timescale measured, the transition temperature must lie between the onset temperatures of the observed endotherm and exotherm. Therefore, a transition temperature of ~49° C. was estimated from the thermogram with the use of the lever rule.
The XRPD acquisition parameters used to collect the VT-XRPD data presented in Table 33 are as follows: X-ray Tube: Cu (1.54059 Å); voltage: 45 kV; amperage: 40 mA; scan range: 3.50-29.99° 2θ; step size: 0.017° 2θ; scan speed: 1.7° per minute; slit: DS: fixed slit ¼°; SS: fixed slit: ½°; revolution time: 0.0 null; and mode: reflection. The XRPD data collection times for the experiment are specified in Table 33.

## Cc1cc(NC(=O)[C@H](O)c2cc(F)cc(F)c2)ccc1-c1cnc(N)c(C(=O)NC(C)C)c1 [Form A of the mono-fumarate salt, (R)-2-amino-5-(4-(2-(3,5-difluorophenyl)-2-hydroxyacetamido)-2-methylphenyl)-N-isopropylnicotinamide]
[1]; 2-Butanone, 50° C., 2 days
  XRPD result after slurry: Mono-fumarate Form A
[1]; 2-Butanone, room temperature, 5 days
  XRPD result after slurry: Mono-fumarate Form A
[1]; Acetone, 50° C., 2 days
  XRPD result after slurry: Mono-fumarate Form A
[1]; Acetone, room temperature, 5 days
  XRPD result after slurry: Mono-fumarate Form A
[1]; EtOAc, 50° C., 2 days
  XRPD result after slurry: Low crystallinity
[1]; EtOAc, room temperature, 5 days
  XRPD result after slurry: Low crystallinity
[1]; EtOH, room temperature, 5 days
  XRPD result after slurry: Solid
[1]; Heptane, 50° C., 2 days
  XRPD result after slurry: Mono-fumarate Form A
[1]; Heptane, room temperature, 5 days
  XRPD result after slurry: Mono-fumarate Form A
[1]; IPA, 50° C., 2 days
  XRPD result after slurry: Hemi-fumarate Form A
[1]; IPA, room temperature, 5 days
  XRPD result after slurry: Hemi-fumarate Form A
[1]; IPAc, 50° C., 2 days
  XRPD result after slurry: Hemi-fumarate Form A
[1]; IPAc, room temperature, 5 days
  XRPD result after slurry: Low crystallinity
[1]; Isobutanol, 50° C., 2 days
  XRPD result after slurry: Hemi-fumarate Form A
[1]; Isobutanol, room temperature, 5 days
  XRPD result after slurry: Hemi-fumarate Form A
[1]; MTBE, 50° C., 2 days
  XRPD result after slurry: Hemi-fumarate Form A
[1]; MTBE, room temperature, 5 days
  XRPD result after slurry: Low crystallinity
[1]; MeCN, room temperature, 5 days
  XRPD result after slurry: Low crystallinity
[1]; Toluene, 50° C., 2 days
  XRPD result after slurry: Hemi-fumarate Form A
[1]; Toluene, room temperature, 5 days
  XRPD result after slurry: Low crystallinity
[1]; Water, 50° C., 2 days
  XRPD result after slurry: Alternative pattern
[1]; Water, room temperature, 5 days
  XRPD result after slurry: Alternative pattern
[2]; EtOAc, organic solvent or mixture, thermodynamic from solid, EtOAc, read-out: Solubility
  solubility: > 3 mg/mL
[2]; EtOH, organic solvent or mixture, thermodynamic from solid, EtOH, read-out: Solubility
  solubility: > 22.5 mg/mL
[2]; IPA, organic solvent or mixture, thermodynamic from solid, IPA, read-out: Solubility
  solubility: > 23.4 mg/mL
[2]; IPAc, organic solvent or mixture, thermodynamic from solid, IPAc, read-out: Solubility
  solubility: > 2.1 mg/mL
[2]; MEK, organic solvent or mixture, thermodynamic from solid, MEK, read-out: Solubility
  solubility: > 11.7 mg/mL
[2]; MTBE, organic solvent or mixture, thermodynamic from solid, MTBE, read-out: Solubility
  solubility: > 4.2 mg/mL
[2]; MeCN, organic solvent or mixture, thermodynamic from solid, MeCN, read-out: Solubility
  solubility: > 2.2 mg/mL
[2]; MeOH
  solubility: >53.2 mg/mL
[2]; MeOH, organic solvent or mixture, thermodynamic from solid, MeOH, read-out: Solubility
  solubility: > 50 mg/mL
[2]; THF
  solubility: >52.6 mg/mL
[2]; THF, organic solvent or mixture, thermodynamic from solid, THF, read-out: Solubility
  solubility: > 50 mg/mL
[2]; acetone, organic solvent or mixture, thermodynamic from solid, Acetone, read-out: Solubility
  solubility: > 13.4 mg/mL
[2]; heptane, organic solvent or mixture, thermodynamic from solid, Heptane, read-out: Solubility
  solubility: < 1 mg/mL
[2]; isobutanol, organic solvent or mixture, thermodynamic from solid, Isobutanol, read-out: Solubility
  solubility: > 11.1 mg/mL
[2]; toluene, organic solvent or mixture, thermodynamic from solid, Toluene, read-out: Solubility
  solubility: < 1.1 mg/mL
[2]; water, thermodynamic from solid, Water, read-out: Solubility
  solubility: < 1.1 mg/mL

## Cc1cc(NC(=O)[C@H](O)c2cc(F)cc(F)c2)ccc1-c1cnc(N)c(C(=O)NC(C)C)c1 [Form C, (R)-2-amino-5-(4-(2-(3,5-difluorophenyl)-2-hydroxyacetamido)-2-methylphenyl)-N-isopropylnicotinamide]
[3]; Acetone, ambient conditions, stored for 13 days
  Result (XRPD): Form B (FIG. 38B)
[3]; Acetone, initial sample
  Result (XRPD): Form B + Form C
[3]; MeCN, ambient conditions, stored for 25 days
  Result (XRPD): Form B (FIG. 38D)
[3]; MeCN, initial sample
  Result (XRPD): Form C (FIG. 38C)
[3]; MeCN/water, ambient conditions, stored for 9 days
  Result (XRPD): Form C + Form B
[3]; MeCN/water, initial sample
  Result (XRPD): Form C (FIG. 38E)
[3]; ambient conditions, irrespective of solvent system used to prepare Form C
  Physical stability of Form C (XRPD): desolvates and either partially converts or fully converts to Form B within days
[3]; sample obtained from acetonitrile and water, ambient conditions, 9 days
  Solid form (XRPD) after storage: mixture of Form B and Form C
[3]; sample obtained from acetonitrile, ambient conditions, 25 days
  Solid form (XRPD) after storage: Form B

## Cc1cc(NC(=O)[C@H](O)c2cc(F)cc(F)c2)ccc1-c1cnc(N)c(C(=O)NC(C)C)c1 [Form B, (R)-2-amino-5-(4-(2-(3,5-difluorophenyl)-2-hydroxyacetamido)-2-methylphenyl)-N-isopropylnicotinamide]
[4]; 30° C., 1st scan in table order
  Result (VT-XRPD): Form B
[4]; 30° C., 4th scan in table order
  Result (VT-XRPD): Material F
[4]; 30° C., 8th scan in table order
  Result (VT-XRPD): Form A
[4]; 75° C., 2nd scan in table order
  Result (VT-XRPD): Form B
[4]; 75° C., 5th scan in table order
  Result (VT-XRPD): Material F
[4]; 100° C., 3rd scan in table order
  Result (VT-XRPD): Material F
[4]; 100° C., 6th scan in table order
  Result (VT-XRPD): Material F
[4]; 175° C., 7th scan in table order
  Result (VT-XRPD): Form A^1
[4]; below the transition temperature
  Relative stability of Form B vs Material F (enantiotropes): more stable, relative to Material F, below the transition temperature
